Results: patent US20070122400A1, “Composition having liver function protecting effect” (priority 2003, published 2007)

How the values were obtained:
[1] = system: liver dysfunction model using carbon tetrachloride; experiment: liver dysfunction model using carbon tetrachloride, plasma GPT activity; type: in vivo, male SD rats; settings: rats; for GPT activity in the plasma sample, relative to the control group: 100 mg/kg oral in soy oil about 17 h before 50% carbon tetrachloride 2.0 ml/kg i.p., plasma 24 hours after carbon tetrachloride, n=4; for GPT activity in the plasma, rank among the groups: 100 mg/kg oral, 24 hours after carbon tetrachloride, same tendency at 48 hours and 72 hours, control group highest
Procedure: The effects of coenzyme Q10 on protecting liver functions from disorders and preventing liver dysfunctions were examined by establishing a liver dysfunction model using carbon tetrachloride. A soy oil solution of oxidized coenzyme Q10 or reduced coenzyme Q10 with approximately 2% of oxidized coenzyme Q10 was orally administered to male SD rats (6 weeks old) at a dosage of 100 mg/kg. About 16 hours after the administration, blood was collected from the jugular vein using heparin as an anticoagulant. After one hour, 50% carbon tetrachloride (product of Nacalai Tesque, Inc.)/olive oil (product of Wako Pure Chemical Industries, Ltd.) was intraperitoneally administered at a dosage of 2.0 ml/kg. Blood was collected 24 hours, 48 hours, and 72 hours after the administration of carbon tetrachloride. The collected blood samples were centrifuged to obtain plasma samples. The GPT activity of each plasma sample was measured using a kit, Transaminase CII-Test Wako (product of Wako Pure Chemical Industries, Ltd.).

[2] = rats, daily dosage of 1,200 mg/kg continuously for 52 weeks; cited from earlier work
[3] = system: Liver dysfunction induced by carbon tetrachloride; settings: rats, intraperitoneal administration; cited from earlier work

Structure (SMILES) | GPT activity in the plasma sample, relative to the control group [1] | GPT activity in the plasma, rank among the groups [1] | toxic effects in chronic toxicity test [2] | liver dysfunction induced by carbon tetrachloride [3]
COc1c(O)c(C)c(C/C=C(\C)CC/C=C(\C)CC/C=C(\C)CC/C=C(\C)CC/C=C(\C)CC/C=C(\C)CC/C=C(\C)CC/C=C(\C)CC/C=C(\C)CCC=C(C)C)c(O)c1OC [reduced coenzyme Q10] | about 25 % of the control group | the lowest |  | 
COC1=C(OC)C(=O)C(C/C=C(\C)CC/C=C(\C)CC/C=C(\C)CC/C=C(\C)CC/C=C(\C)CC/C=C(\C)CC/C=C(\C)CC/C=C(\C)CC/C=C(\C)CCC=C(C)C)=C(C)C1=O [Coenzyme Q10] |  |  | no toxic effects | 
COC1=C(OC)C(=O)C(C/C=C(\C)CC/C=C(\C)CC/C=C(\C)CC/C=C(\C)CC/C=C(\C)CC/C=C(\C)CC/C=C(\C)CC/C=C(\C)CC/C=C(\C)CCC=C(C)C)=C(C)C1=O [oxidized coenzyme Q10] | about 60 % of the control group | the next highest |  | suppressed
